# According to US10280160B2, “Phthalazinone compounds and methods for the treatment of cystic fibrosis” (FLATLEY DISCOVERY LAB, LLC, priority 2013, dated 2019):
# Biological target: human F508del CFTR (Homo sapiens (Human), UniProt P13569, DEL508-508)
# Assay: CFTR-YFP High Throughput Assay (YFP halide flux, FRT cells)
# Assay type: cell-based
# Conditions: EMax normalized to the positive control; FRT cells expressing human F508del CFTR and YFP; read-out: % Efficacy
# Procedure: Assays for Detecting and Measuring the Effect of Compounds on F508del-CFTR Channels CFTR-YFP Assay-CFTR Corrector Protocol:
# This protocol is designed to selectively screen small molecule compounds for F508del CFTR corrector activities in the YFP (yellow fluorescent protein) flux assay. In this protocol, the cells are incubated with testing compounds for 24 hours, washed with PBS, stimulated with forskolin and a standard potentiator, and fluorescence in each plate well is measured kinetically read on a 384-well plate reader, such as the Hamamatsu FDSS-6000.
# YFP fluorescence intensity values are acquired at high speed before and after iodide buffer is injected to the assay cells. Iodide enters the cells via active CFTR channels in the plasma membrane, and quenches the YFP fluorescence. The rate of fluorescence quenching is proportionate to the total CFTR activity in the cell membrane. F508del CFTR correctors increase the number of CFTR molecules in the testing cell plasma membrane, and thereby accelerate YFP quenching.
# This method was initially developed for bench top plate readers (Galietta, J, Jayaraman, S and Verkman, A S. Cell-based assay for high-throughput quantitative screening of CFTR chloride transport agonists. Am. J. Physiol. Cell Physiol. (2001), 281: C173), and was adapted to the HTS format (Sui J, Cotard S, Andersen J, Zhu P, Staunton J, Lee M, Lin S. Optimization of a Yellow fluorescent protein-based iodide influx high-throughput screening assay for cystic fibrosis transmembrane conductance regulator (CFTR) modulators. Assay Drug Dev Technol. (2010), 8: 656-668).
# Fisher Rat Thyroid (FRT) cells stably expressing both human F508del CFTR and a halide-sensitive yellow fluorescent protein (YFP-H148Q/I152L 25,22) (Galietta et al. Am. J. Physiol Cell Physiol 281(5), C1734, 2001) were cultured on plastic surface in Coon's modified Ham's F12 medium supplemented with FBS 10%, L-glutamine 2 mM, penicillin 100 U/ml, and streptomycin 100 μg/ml. G418 (0.75-1.0 mg/ml) and zeocin (3.2 ug/ml) were used for selection of FRT cells expressing F508del CFTR and YFP. For primary screening, FRT cells were plated into 384-well black wall, transparent bottom microtiter plates (Costar; Corning Inc.) at a cell density of 20,000-40,000 per well. Test compound was applied to the cells at varying concentrations ranging from 2 nM-40 μM in either a 2-fold or 3-fold dilution series. Cells were incubated in a cell culture incubator at 37° C. with 5% CO2 for 24-26 h. Assay plates were washed with DPBS media (Thermo, cat # SH30028.02) to remove unbound cells and compound. Stimulation media (25 μL) containing 20 μM Forskolin & 30 μM P3 [6-(Ethyl-phenyl-sulfonyl)-4-oxo-1,4-dihydro-quinoline-3-carboxylic acid 2-methoxy-benzylamide] in Hams F-12 coon's modified media was added to the plate wells and incubated at room temperature for 60-120 min. 25 μL of HEPES-PBS-I buffer (10 mM HEPES, 1 mM MgCl2, 3 mM KCl, 1 mM CaCl2, 150 mM NaI) was then added and fluorescence quench curves (Excitation 500 nm/Emission 540 nm; exposure 136 ms) were immediately recorded on an FDSS-6000 plate reader (Hamamatsu). Quench rates were derived from least squares fitting of the data as described by Sui et al (2010).
# CFTR-YFP Assay-CFTR Potentiator Protocol:
# This protocol is designed to selectively screen small molecule compounds for F508del CFTR potentiator activities in the YFP (yellow fluorescent protein) flux assay. Such compounds act acutely to stimulate CFTR already expressed on the membrane surface. In this protocol, the cells are incubated at 27° C. for 24 hours to homogeneously boost F508del CFTR expression in the cell membrane (low temperature correction), washed with PBS, treated with test compound, and CFTR activity is stimulated with forskolin for 1-2 hr. Measurement of ion flux is initiated by addition of iodide-containing buffer, and YFP quenching is kinetically recorded using a 384-well plate reader, such as the Hamamatsu FDSS-6000. […]
# human F508del CFTR, sequence (P13569 other isoform, or with tags, fused parts or gaps del F508-F508): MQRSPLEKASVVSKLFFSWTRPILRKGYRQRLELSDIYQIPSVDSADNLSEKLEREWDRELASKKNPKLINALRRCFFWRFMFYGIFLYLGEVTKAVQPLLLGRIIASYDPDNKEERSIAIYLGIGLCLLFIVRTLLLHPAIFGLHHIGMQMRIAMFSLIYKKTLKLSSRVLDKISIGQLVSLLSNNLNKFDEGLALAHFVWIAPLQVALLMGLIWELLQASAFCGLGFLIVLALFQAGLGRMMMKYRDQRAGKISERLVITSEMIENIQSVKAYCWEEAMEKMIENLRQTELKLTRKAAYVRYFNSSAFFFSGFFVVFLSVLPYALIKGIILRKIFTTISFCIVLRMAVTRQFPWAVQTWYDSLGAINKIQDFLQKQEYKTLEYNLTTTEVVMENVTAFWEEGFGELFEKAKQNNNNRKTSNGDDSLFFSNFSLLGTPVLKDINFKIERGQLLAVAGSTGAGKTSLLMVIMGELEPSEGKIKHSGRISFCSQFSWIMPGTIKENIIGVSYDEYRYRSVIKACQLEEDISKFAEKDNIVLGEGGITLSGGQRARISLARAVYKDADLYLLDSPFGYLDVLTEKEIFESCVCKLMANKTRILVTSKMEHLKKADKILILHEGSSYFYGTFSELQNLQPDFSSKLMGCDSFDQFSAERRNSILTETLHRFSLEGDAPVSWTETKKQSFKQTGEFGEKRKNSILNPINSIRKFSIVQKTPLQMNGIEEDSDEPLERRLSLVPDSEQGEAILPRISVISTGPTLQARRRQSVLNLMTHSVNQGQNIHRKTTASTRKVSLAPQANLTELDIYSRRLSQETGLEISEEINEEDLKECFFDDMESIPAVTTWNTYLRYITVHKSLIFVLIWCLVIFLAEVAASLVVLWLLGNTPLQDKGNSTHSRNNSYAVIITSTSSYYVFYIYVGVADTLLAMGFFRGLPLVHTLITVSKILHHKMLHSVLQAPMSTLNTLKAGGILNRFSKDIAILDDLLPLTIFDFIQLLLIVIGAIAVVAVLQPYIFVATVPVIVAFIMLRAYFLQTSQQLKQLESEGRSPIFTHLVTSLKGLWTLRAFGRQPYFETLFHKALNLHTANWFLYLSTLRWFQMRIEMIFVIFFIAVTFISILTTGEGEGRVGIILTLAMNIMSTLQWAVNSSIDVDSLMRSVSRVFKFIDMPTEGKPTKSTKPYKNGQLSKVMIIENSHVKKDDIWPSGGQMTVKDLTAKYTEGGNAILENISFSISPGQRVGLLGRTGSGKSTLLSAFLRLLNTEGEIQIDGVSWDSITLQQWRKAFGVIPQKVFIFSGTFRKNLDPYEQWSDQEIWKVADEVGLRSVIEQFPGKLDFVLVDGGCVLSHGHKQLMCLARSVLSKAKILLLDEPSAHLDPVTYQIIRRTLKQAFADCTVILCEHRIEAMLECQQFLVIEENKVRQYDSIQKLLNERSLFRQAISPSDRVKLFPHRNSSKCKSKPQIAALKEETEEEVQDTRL
row,Emax [%],Structure (SMILES)
1,> 80,"Cc1nc2ccc(N(C)C(=O)Cn3nc(-c4cccc(Cl)c4)c4ccc(O)cc4c3=O)cc2o1 [Example 16, 2-(4-(3-chlorophenyl)-7-hydroxy-1-oxophthalazin-2(1H)-yl)-N-methyl-N-(2-methylbenzo[d]oxazol-6-yl)acetamide]"
2,> 80,"CCOc1ccc2c(-c3cccc(F)c3)nn(CC(=O)N(c3ccc4nc(C)oc4c3)C3CC3)c(=O)c2c1 [Example 21, N-cyclopropyl-2-(7-ethoxy-4-(3-fluorophenyl)-1-oxophthalazin-2(1H)-yl)-N-(2-methylbenzo[d]oxazol-6-yl)acetamide]"
3,> 80,"[2H]C([2H])([2H])N(C(=O)Cn1nc(-c2cccc(Cl)c2)c2ccc(OC)cc2c1=O)c1ccc2nc(C)oc2c1 [Example 6, 2-(4-(3-chlorophenyl)-7-methoxy-1-oxophthalazin-2(1H)-yl)-N-(methyl-d3)-N-(2-methylbenzo[d]oxazol-6-yl)acetamide]"
4,> 80,"Cc1nc2ccc(N(C)C(=O)Cn3nc(-c4cccc(Cl)c4)c4ccccc4c3=O)cc2o1 [Example 1, 2-(4-(3-chlorophenyl)-1-oxophthalazin-2(1H)-yl)-N-methyl-N-(2-methylbenzo[d]oxazol-6-yl)acetamide]"
5,> 80,"CCOc1ccc2c(-c3cccc(F)c3)nn(CC(=O)N(C)c3ccc4nc(C)oc4c3)c(=O)c2c1 [Example 17, 2-(7-ethoxy-4-(3-fluorophenyl)-1-oxophthalazin-2(1H)-yl)-N-methyl-N-(2-methylbenzo[d]oxazol-6-yl)acetamide]"
6,> 80,"COc1cc2c(=O)n(CC(=O)N(C)c3ccc4nc(C)oc4c3)nc(-c3cccc(Cl)c3)c2cc1Cl [Example 11, 2-(6-chloro-4-(3-chlorophenyl)-7-methoxy-1-oxophthalazin-2(1H)-yl)-N-methyl-(2-methylbenzo[d]oxazol-6-yl)acetamide]"
7,> 80,"CCOc1ccc2c(-c3cccc(Cl)c3)nn(CC(=O)N(C)c3ccc4nc(C)oc4c3)c(=O)c2c1 [Example 19, 2-(4-(3-chlorophenyl)-7-ethoxy-1-oxophthalazin-2(1H)-yl)-N-methyl-N-(2-methylbenzo[d]oxazol-6-yl)acetamide]"
